In ChEMBL document CHEMBL1944630, “Indomethacin Analogues that Enhance Doxorubicin Cytotoxicity in Multidrug Resistant Cells without Cox Inhibitory Activity” (ACS Med Chem Lett, 2011):
The source made the active and inactive calls. The calls are words filed in the database; no cut-off is given here.

Assays:
[1] = biological target: T1, Prostaglandin G/H synthase 1 (Homo sapiens, UniProt P23219); experiment: Inhibition of COX1 at 100 uM
[2] = system: T98G; experiment: Cytotoxicity against multidrug-resistant human T98G cells expressing MRP-1 at 50 uM after 3 days by crystal violet staining analysis; assay type: cell-based; details: 72 h
[3] = system: T98G; experiment: Potentiation of doxorubicin-induced cytotoxicity against multidrug-resistant human T98G cells expressing MRP-1 at 50 uM pretreated for 2 hrs prior addition of doxorubicin measured after 3 days by crystal violet staining analysis; assay type: functional, cell-based
[4] = biological target: T2, Prostaglandin G/H synthase 2 (Homo sapiens, UniProt P35354); experiment: Inhibition of COX2
T2 sequence (P35354 whole entry): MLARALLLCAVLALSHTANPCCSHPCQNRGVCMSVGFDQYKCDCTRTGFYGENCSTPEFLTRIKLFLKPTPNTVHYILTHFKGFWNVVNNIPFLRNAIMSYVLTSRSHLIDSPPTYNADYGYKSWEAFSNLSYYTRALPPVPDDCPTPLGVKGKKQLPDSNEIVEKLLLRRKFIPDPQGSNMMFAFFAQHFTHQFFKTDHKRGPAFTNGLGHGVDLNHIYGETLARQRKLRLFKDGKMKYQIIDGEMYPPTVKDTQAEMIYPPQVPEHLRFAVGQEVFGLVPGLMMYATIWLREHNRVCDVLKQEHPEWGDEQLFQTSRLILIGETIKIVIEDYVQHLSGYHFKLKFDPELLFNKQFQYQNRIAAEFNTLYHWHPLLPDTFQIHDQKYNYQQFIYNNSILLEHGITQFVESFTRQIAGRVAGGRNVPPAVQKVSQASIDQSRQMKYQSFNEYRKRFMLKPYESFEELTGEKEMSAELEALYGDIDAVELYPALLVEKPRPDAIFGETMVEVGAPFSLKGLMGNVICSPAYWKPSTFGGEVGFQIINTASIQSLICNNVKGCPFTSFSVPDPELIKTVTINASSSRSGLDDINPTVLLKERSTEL

[5] = biological target: T1, Prostaglandin G/H synthase 1; experiment: Inhibition of COX1

T1 sequence (P23219 whole entry): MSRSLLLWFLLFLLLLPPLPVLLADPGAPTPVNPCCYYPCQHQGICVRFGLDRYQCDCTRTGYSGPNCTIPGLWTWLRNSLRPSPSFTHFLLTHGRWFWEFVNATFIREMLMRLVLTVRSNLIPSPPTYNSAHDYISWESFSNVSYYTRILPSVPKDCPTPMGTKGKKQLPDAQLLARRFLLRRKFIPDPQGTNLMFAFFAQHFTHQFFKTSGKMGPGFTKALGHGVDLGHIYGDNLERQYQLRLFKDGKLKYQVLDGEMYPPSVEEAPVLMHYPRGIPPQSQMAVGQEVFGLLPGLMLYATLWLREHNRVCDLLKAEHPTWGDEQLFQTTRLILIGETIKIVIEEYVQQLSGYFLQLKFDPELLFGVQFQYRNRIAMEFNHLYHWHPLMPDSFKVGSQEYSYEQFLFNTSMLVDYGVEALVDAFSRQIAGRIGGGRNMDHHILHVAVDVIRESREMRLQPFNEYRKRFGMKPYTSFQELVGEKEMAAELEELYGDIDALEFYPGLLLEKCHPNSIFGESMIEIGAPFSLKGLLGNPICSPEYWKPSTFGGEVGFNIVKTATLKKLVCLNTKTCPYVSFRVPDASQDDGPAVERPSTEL

| inhibition [1] [%] | IC50 [4] [µM] | IC50 [5] [µM] | SMILES | Activity [2] | Activity [3] |
| --- | --- | --- | --- | --- | --- |
| 38 | – | – | CC(=O)Oc1ccccc1C(=O)O | – | – |
| < 0 | > 400 | > 400 | CCc1c(CC(=O)O)c2ccccc2n1C(=O)c1ccc(Cl)cc1 | Non-toxic | Active |
| 79 | 39 | 0.01 | Cc1c(CC(=O)O)c2ccccc2n1C(=O)c1ccc(Cl)cc1 | – | – |
| < 0 | > 400 | > 400 | O=C(O)Cc1c(-c2ccccc2)n(C(=O)c2ccc(Cl)cc2)c2ccccc12 | Non-toxic | Active |
